Results on 51 compounds are retold here after patent publication US9732075B2, “Benzimidazole-proline derivatives” (IDORSIA PHARMACEUTICALS LTD, priority 2012, dated 2017).

As usually defined, the IC50 is the midpoint of a concentration-inhibition curve.

The structures appear in SMILES notation.

In one test the target is human orexin-1 receptor (Homo sapiens (Human), UniProt O43613). Description: In vitro assay: intracellular calcium measurements (FLIPR), antagonistic activity. It counts as cell-based. The conditions noted are these: CHO cells expressing human orexin-1 receptor, orexin-A agonist, geometric mean, read-out: IC50 Ox1. In short, it runs like this:
(§1)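 Read-out: FLIPR fluo-4 calcium peak height in CHO cells bearing human orexin-1 or orexin-2 receptor, relative to orexin-A (approx. EC70) with vehicle. Antagonist preincubation 120 min; agonist orexin-A at 3 nM final. IC50 possibly normalized to an on-plate reference compound.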
Background: Calcium flux is commonly read through the fluorescence of an indicator in the cells.

The next test concerns the target human orexin-2 receptor (Homo sapiens (Human), UniProt O43614). Described as above. It counts as cell-based. The conditions noted are these: CHO cells expressing human orexin-2 receptor, orexin-A agonist, geometric mean, read-out: IC50 Ox2. Summed up: as §1

human orexin-2 receptor, sequence (O43614 whole entry): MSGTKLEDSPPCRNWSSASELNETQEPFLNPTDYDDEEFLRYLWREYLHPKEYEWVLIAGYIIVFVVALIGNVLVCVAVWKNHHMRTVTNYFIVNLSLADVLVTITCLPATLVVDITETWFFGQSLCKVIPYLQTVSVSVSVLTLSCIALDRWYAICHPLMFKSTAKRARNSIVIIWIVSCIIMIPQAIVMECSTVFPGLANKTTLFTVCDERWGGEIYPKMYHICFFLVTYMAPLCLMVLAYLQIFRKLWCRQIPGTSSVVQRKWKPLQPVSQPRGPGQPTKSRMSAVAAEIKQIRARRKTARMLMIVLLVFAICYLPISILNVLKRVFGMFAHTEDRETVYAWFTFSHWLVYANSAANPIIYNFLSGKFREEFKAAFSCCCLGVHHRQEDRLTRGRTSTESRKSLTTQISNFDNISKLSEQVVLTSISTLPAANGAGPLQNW
human orexin-1 receptor, sequence (O43613 whole entry): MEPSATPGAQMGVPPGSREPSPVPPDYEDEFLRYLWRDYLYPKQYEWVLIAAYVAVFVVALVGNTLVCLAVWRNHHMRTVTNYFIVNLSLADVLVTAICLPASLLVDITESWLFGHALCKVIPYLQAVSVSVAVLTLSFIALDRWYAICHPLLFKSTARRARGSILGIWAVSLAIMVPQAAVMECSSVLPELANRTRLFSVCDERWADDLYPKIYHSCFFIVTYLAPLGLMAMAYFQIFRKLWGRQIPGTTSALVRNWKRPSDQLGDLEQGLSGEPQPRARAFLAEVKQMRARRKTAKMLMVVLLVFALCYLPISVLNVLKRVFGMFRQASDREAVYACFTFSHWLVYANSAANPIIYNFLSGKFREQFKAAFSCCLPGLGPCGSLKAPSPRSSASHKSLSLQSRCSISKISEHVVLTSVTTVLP

For `C=C1C[C@@H](c2nc3cc(OC)ccc3[nH]2)N(C(=O)c2nc(C)sc2-c2ccc(Br)cc2)C1` [Ex. 6.22], the IC50 on human orexin-1 receptor amounted to 410 nM; on human orexin-2 receptor, 19 nM.

As to `C=C1C[C@@H](c2nc3cc(OC)ccc3[nH]2)N(C(=O)c2nc(C)sc2-c2cccc(Cl)c2Cl)C1` [Ex. 6.23], the figures for the IC50 at human orexin-1 receptor and on human orexin-2 receptor were 452 nM and 67 nM, respectively.

For the compound `C=C1C[C@@H](c2nc3cc(OC)ccc3[nH]2)N(C(=O)c2nc(C)sc2-c2ccc(F)c(Br)c2)C1` [Ex. 6.24], the half-inhibitory concentration (IC50) on human orexin-1 receptor was 53 nM; on human orexin-2 receptor, 17 nM.

As for `C=C1C[C@@H](c2nc3cc(OC)ccc3[nH]2)N(C(=O)c2nc(C3CC3)sc2-c2ccc(C)c(F)c2)C1` [Ex. 6.25], the IC50 on human orexin-1 receptor is 154 nM; at human orexin-2 receptor it was 52 nM.

As for `C=C1C[C@@H](c2nc3cc(OC)ccc3[nH]2)N(C(=O)c2nc(C3CC3)sc2-c2cccc(C)c2)C1` [Ex. 6.26], the IC50 turned out to be 26 nM on human orexin-1 receptor and 24 nM at human orexin-2 receptor.

Regarding `C=C1C[C@@H](c2nc3cc(OC)ccc3[nH]2)N(C(=O)c2nc(N(C)C)sc2-c2ccc(C)c(C)c2)C1` [Ex. 6.27], the half-inhibitory concentration (IC50) was found to be 5 nM at human orexin-1 receptor and 9 nM on human orexin-2 receptor.

Regarding `C=C1C[C@@H](c2nc3cc(OC)ccc3[nH]2)N(C(=O)c2nc(C3CC3)sc2-c2cccc(Br)c2)C1` [Ex. 6.28], the IC50 at human orexin-1 receptor was 20 nM; on human orexin-2 receptor, 15 nM.

As for `C=C1C[C@@H](c2nc3cc(OC)ccc3[nH]2)N(C(=O)c2nc(N3CCCC3)sc2-c2cccc(F)c2)C1` [Ex. 6.29], the IC50 at human orexin-1 receptor stood at 69 nM; at human orexin-2 receptor, 92 nM.

On to `C=C1C[C@@H](c2nc3cc(OC)ccc3[nH]2)N(C(=O)c2nc(C)sc2-c2cccc(C(F)(F)F)c2)C1` [Ex. 6.30], for which the values for the IC50 on human orexin-1 receptor and at human orexin-2 receptor were 203 nM and 31 nM, respectively.

On to `C=C1C[C@@H](c2nc3cc(OC)ccc3[nH]2)N(C(=O)c2nc(C3CC3)sc2-c2cccc(OC)c2)C1` [Ex. 6.31], for which the IC50 on human orexin-1 receptor came to 41 nM; at human orexin-2 receptor it was 22 nM.

Take `C=C1C[C@@H](c2nc3cc(OC)ccc3[nH]2)N(C(=O)c2ncsc2-c2cccc(Cl)c2)C1` [Ex. 6.32]: the values for the IC50 on human orexin-1 receptor and on human orexin-2 receptor were 814 nM and 103 nM, respectively.

With `C=C1C[C@@H](c2nc3cc(OC)ccc3[nH]2)N(C(=O)c2nc(C)sc2-c2cccc(F)c2)C1` [Ex. 6.33], the IC50 came to 213 nM on human orexin-1 receptor and 23 nM on human orexin-2 receptor.

Turning to `C=C1C[C@@H](c2nc3cc(OC)ccc3[nH]2)N(C(=O)c2nc(C)sc2-c2ccccc2Cl)C1` [Ex. 6.34], the IC50 at human orexin-1 receptor stood at 398 nM; on human orexin-2 receptor, 66 nM.

For `C=C1C[C@@H](c2nc3cc(OC)ccc3[nH]2)N(C(=O)c2nc(C3CC3)sc2-c2ccc(C)cc2)C1` [Ex. 6.35], the IC50 on human orexin-1 receptor turned out to be 146 nM; at human orexin-2 receptor, 80 nM.

As to `C=C1C[C@@H](c2nc3cc(OC)ccc3[nH]2)N(C(=O)c2cc(C)sc2-c2ccc(C)c(C)c2)C1` [Ex. 6.36], the IC50 at human orexin-1 receptor came to 15 nM; on human orexin-2 receptor, 2 nM.

On to `C=C1C[C@@H](c2nc3cc(OC)ccc3[nH]2)N(C(=O)c2nc(C)sc2-c2cc(F)cc(F)c2)C1` [Ex. 6.37], for which the figures for the 50% inhibitory concentration (IC50) on human orexin-1 receptor and at human orexin-2 receptor were 422 nM and 45 nM, respectively.

As to `C=C1C[C@@H](c2nc3cc(OC)ccc3[nH]2)N(C(=O)c2ccsc2-c2cccc(C)c2)C1` [Ex. 6.38], the IC50 was 269 nM at human orexin-1 receptor and 19 nM on human orexin-2 receptor.

For `C=C1C[C@@H](c2nc3cc(OC)ccc3[nH]2)N(C(=O)c2ccsc2-c2ccc(C)c(C)c2)C1` [Ex. 6.39], the figures for the IC50 on human orexin-1 receptor and on human orexin-2 receptor were 106 nM and 9 nM, respectively.

For `C=C1C[C@@H](c2nc3c(C)cccc3[nH]2)N(C(=O)c2nc(C)sc2-c2ccccc2)C1` [Ex. 6.40], the results for the IC50 on human orexin-1 receptor and on human orexin-2 receptor were 70 nM and 9 nM, respectively.

For the compound `C=C1C[C@@H](c2nc3c(C)c(Cl)ccc3[nH]2)N(C(=O)c2nc(C)sc2-c2ccccc2)C1` [Ex. 6.41], the IC50 at human orexin-1 receptor turned out to be 4 nM; on human orexin-2 receptor, 2 nM.

`C=C1C[C@@H](c2nc3c(C)c(Cl)ccc3[nH]2)N(C(=O)c2cc(C)ccc2-n2nccn2)C1` [Ex. 6.42]: the figures for the IC50 at human orexin-1 receptor and at human orexin-2 receptor were 12 nM and 2 nM, respectively.

As to `C=C1C[C@@H](c2nc3ccccc3[nH]2)N(C(=O)c2nc(C)sc2-c2cccc(Cl)c2)C1` [Ex. 6.43], the IC50 at human orexin-1 receptor amounted to 368 nM; at human orexin-2 receptor it was 62 nM.

Take `C=C1C[C@@H](c2nc3c(C)cccc3[nH]2)N(C(=O)c2nc(C)sc2-c2cccc(Cl)c2)C1` [Ex. 6.44]: the half-inhibitory concentration (IC50) is 10 nM at human orexin-1 receptor and 2 nM on human orexin-2 receptor.

With `C=C1C[C@@H](c2nc3c(C)c(Cl)ccc3[nH]2)N(C(=O)c2nc(C)sc2-c2cccc(Cl)c2)C1` [Ex. 6.45], the 50% inhibitory concentration (IC50) at human orexin-1 receptor and on human orexin-2 receptor was 1 nM each time.

For `C=C1C[C@@H](c2nc3ccc(OC)cc3[nH]2)N(C(=O)c2nc(C)sc2-c2ccc(C)c(C)c2)C1` [Ex. 6.46], the IC50 stood at 30 nM on human orexin-1 receptor and 4 nM at human orexin-2 receptor.

Consider `C=C1C[C@@H](c2nc3c(C)c(C)ccc3[nH]2)N(C(=O)c2nc(C)sc2-c2ccc(C)c(C)c2)C1` [Ex. 6.47], for which the IC50 at human orexin-1 receptor is 6 nM; on human orexin-2 receptor, 1 nM.

Regarding `C=C1C[C@@H](c2nc3c(OC)ccc(OC)c3[nH]2)N(C(=O)c2nc(C)sc2-c2ccc(C)c(C)c2)C1` [Ex. 6.48], the IC50 at human orexin-1 receptor was 14 nM; on human orexin-2 receptor, 7 nM.

On to `C=C1C[C@@H](c2nc3c(SC)cccc3[nH]2)N(C(=O)c2nc(C)sc2-c2ccc(C)c(C)c2)C1` [Ex. 6.49], for which the IC50 turned out to be 3 nM at human orexin-1 receptor and 1 nM at human orexin-2 receptor.

Take `C=C1C[C@@H](c2nc3c(Br)cccc3[nH]2)N(C(=O)c2nc(C)sc2-c2ccc(C)c(C)c2)C1` [Ex. 6.50]: the IC50 turned out to be 5 nM at human orexin-1 receptor and 1 nM at human orexin-2 receptor.

Turning to `C=C1C[C@@H](c2nc3c(Cl)cccc3[nH]2)N(C(=O)c2nc(C)sc2-c2ccc(C)c(C)c2)C1` [Ex. 6.51], the IC50 at human orexin-1 receptor was 8 nM; at human orexin-2 receptor, 3 nM.

Regarding `C=C1C[C@@H](c2nc3cc(SC)ccc3[nH]2)N(C(=O)c2nc(C)sc2-c2ccc(C)c(C)c2)C1` [Ex. 6.52], the IC50 at human orexin-1 receptor was 8 nM; on human orexin-2 receptor it was 2 nM.

For the compound `C=C1C[C@@H](c2nc3c(C)cccc3[nH]2)N(C(=O)c2nc(C)sc2-c2ccc(C)c(C)c2)C1` [Ex. 6.53], the figures for the IC50 on human orexin-1 receptor and at human orexin-2 receptor were 4 nM and 1 nM, respectively.

As to `C=C1C[C@@H](c2nc3c(C)c(Cl)ccc3[nH]2)N(C(=O)c2nc(C)sc2-c2ccc(C)c(C)c2)C1` [Ex. 6.54], the results for the IC50 on human orexin-1 receptor and on human orexin-2 receptor were 3 nM and 1 nM, respectively.

As to `C=C1C[C@@H](c2nc3cc(Cl)c(C)cc3[nH]2)N(C(=O)c2nc(C)sc2-c2ccc(C)c(C)c2)C1` [Ex. 6.55], the IC50 at human orexin-1 receptor is 5 nM; at human orexin-2 receptor, 1 nM.

With `C=C1C[C@@H](c2nc3cc(C)c(C)cc3[nH]2)N(C(=O)c2nc(C)sc2-c2ccc(C)c(C)c2)C1` [Ex. 6.56], the IC50 at human orexin-1 receptor was 6 nM; at human orexin-2 receptor it was 1 nM.

Regarding `C=C1C[C@@H](c2nc3cc(C(C)(C)C)ccc3[nH]2)N(C(=O)c2nc(C)sc2-c2ccc(C)c(C)c2)C1` [Ex. 6.57], the IC50 on human orexin-1 receptor and on human orexin-2 receptor was 11 nM each time.

`C=C1C[C@@H](c2nc3c(C)cc(C)cc3[nH]2)N(C(=O)c2nc(C)sc2-c2ccc(C)c(C)c2)C1` [Ex. 6.58]: the values for the IC50 on human orexin-1 receptor and at human orexin-2 receptor were 4 nM and 1 nM, respectively.

Take `C=C1C[C@@H](c2nc3cccc(SC)c3[nH]2)N(C(=O)c2cc(C)ccc2-n2nccn2)C1` [Ex. 6.59]: the IC50 on human orexin-1 receptor is 76 nM; on human orexin-2 receptor, 10 nM.

As to `C=C1C[C@@H](c2nc3cc(SC)ccc3[nH]2)N(C(=O)c2cc(C)ccc2-n2nccn2)C1` [Ex. 6.60], the IC50 is 83 nM on human orexin-1 receptor and 3 nM at human orexin-2 receptor.

For `C=C1C[C@@H](c2nc3cc(C)c(C)cc3[nH]2)N(C(=O)c2cc(C)ccc2-n2nccn2)C1` [Ex. 6.61], the IC50 on human orexin-1 receptor amounted to 41 nM; at human orexin-2 receptor it was 4 nM.

In the case of `C=C1C[C@@H](c2nc3c(C)cc(C)cc3[nH]2)N(C(=O)c2cc(C)ccc2-n2nccn2)C1` [Ex. 6.62], the results for the IC50 at human orexin-1 receptor and on human orexin-2 receptor were 44 nM and 4 nM, respectively.

Consider `C=C1C[C@@H](c2nc3c(C)c(C)ccc3[nH]2)N(C(=O)c2cc(C)ccc2-n2nccn2)C1` [Ex. 6.63], for which the IC50 at human orexin-1 receptor was determined as 88 nM; on human orexin-2 receptor it was 3 nM.

Consider `C=C1C[C@@H](c2nc3c(Br)cccc3[nH]2)N(C(=O)c2cc(C)ccc2-n2nccn2)C1` [Ex. 6.64], for which the IC50 came to 142 nM at human orexin-1 receptor and 33 nM on human orexin-2 receptor.

`C=C1C[C@@H](c2nc3cc(Cl)c(C)cc3[nH]2)N(C(=O)c2cc(C)ccc2-n2nccn2)C1` [Ex. 6.65]: the values for the IC50 at human orexin-1 receptor and at human orexin-2 receptor were 34 nM and 3 nM, respectively.

For `C=C1C[C@@H](c2nc3cc(C(C)(C)C)ccc3[nH]2)N(C(=O)c2cc(C)ccc2-n2nccn2)C1` [Ex. 6.66], the IC50 on human orexin-1 receptor was found to be 57 nM; on human orexin-2 receptor, 2 nM.

With `C=C1C[C@@H](c2nc3cc(Cl)c(C(F)(F)F)cc3[nH]2)N(C(=O)c2cc(C)ccc2-n2nccn2)C1` [Ex. 6.67], the IC50 at human orexin-1 receptor was 9 nM; on human orexin-2 receptor it was 5 nM.

Consider `C=C1C[C@@H](c2nc3c(OC)ccc(OC)c3[nH]2)N(C(=O)c2cc(C)ccc2-n2nccn2)C1` [Ex. 6.68], for which the IC50 stood at 767 nM on human orexin-1 receptor and 62 nM at human orexin-2 receptor.

On to `C=C1C[C@@H](c2nc3cccc(Cl)c3[nH]2)N(C(=O)c2cc(C)ccc2-n2nccn2)C1` [Ex. 6.69], for which the results for the IC50 on human orexin-1 receptor and on human orexin-2 receptor were 389 nM and 51 nM, respectively.

`C=C1CC(c2nc3cc(SC)ccc3[nH]2)N(C(=O)c2cc(C)sc2-c2ccc(C)c(C)c2)C1` (stereo not drawn) [Ex. 6.73]: the values for the IC50 on human orexin-1 receptor and on human orexin-2 receptor were 10 nM and 4 nM, respectively.

`C=C1CC(c2nc3c(C)c(Cl)ccc3[nH]2)N(C(=O)c2cc(C)sc2-c2ccc(C)c(C)c2)C1` (stereo not drawn) [Ex. 6.74]: the IC50 came out at 4 nM at human orexin-1 receptor and 11 nM at human orexin-2 receptor.

In the case of `C=C1CC(c2nc3c(C)cc(C)cc3[nH]2)N(C(=O)c2cc(C)sc2-c2ccc(C)c(C)c2)C1` (stereo not drawn) [Ex. 6.76], the half-maximal inhibitory concentration (IC50) at human orexin-1 receptor and at human orexin-2 receptor was 4 nM throughout.
